{"source": "patent US20040002444A1", "about": "“Polyphosphate-water soluble collagen complexes and process for preparation thereof” (Toshikazu SHIBA, priority 2002, published 2004)", "key": {"[1]": {"tested_on": "alveolar bone of rats (artificial periodontal pockets)", "test": "Regeneration of the periodontal tissue in rats (Example 3)", "assay_type": "in vivo, Wister male rats", "settings": "approx. 0.1 ml injected into gingival crevices everyday, up to 3 weeks; light microscope", "method": "Next, to confirm the effect of the prepared polyphosphate-collagen complex in regenerating the periodontal tissue, an experiment for the regeneration of the periodontal tissue was performed using rats. Wister male rats (8 weeks old; 18 rats in total) were anesthetized. Then, using a ½ round bar, approximately 2 mm portions were removed from the buccal alveolar bone crest of the mandibular first and second molars, and artificial periodontal pockets (gingival crevices) were formed. In the treated group (9 rats), approximately 0.1 ml of the polyphosphate-collagen complexes prepared in Example 2 was injected using a syringe into the thus formed gingival crevices. In the comparison group (9 rats), only the collagen was injected. The injection procedure was performed everyday from the day following the operation to prepare the gingival crevice, and continued for 3 weeks at the longest.\nThe rats treated for a certain period were euthanized by inhalation anesthesia (enflurane), and the tissues were fixed by perfusion fixation. Perfusion fixation was performed by letting 300 ml of physiological saline and then 10% neutral buffered formalin solution (pH 7.4, 500 ml) to flow through the blood vessel. […] In addition, the area of the regenerated alveolar bone was measured as the area of bone formation by calculating the sum of the bone areas in the sections with image processing."}, "[2]": {"tested_on": "alveolar bone of rats (artificial periodontal pockets)", "test": "Regeneration of the periodontal tissue in rats, influence of polyphosphate chain length (Example 4)", "assay_type": "in vivo, Wister male rats", "settings": "measured at 15 days after operation; for area of the regenerated alveolar bone: approx. 0.1 ml injected into gingival crevices once a day for 14 days", "method": "Next, an experiment of the regeneration of the periodontal tissue in rats was performed using the 3 prepared types of polyphosphate-collagen complexes. In a manner similar to Example 3, Wister male rats (8 weeks old) were anesthetized. Then, using a ½ round bar, approximately 2 mm portions were removed from the buccal alveolar bone crest of the mandibular first and second molars, and artificial periodontal pockets (gingival crevices) were formed. In the treated group, approximately 0.1 ml of either one type of the above polyphosphate-collagen complexes was injected using a syringe into the thus formed gingival crevices. The treated groups were: treated group 1 that was treated with the polyphosphate-collagen complex containing polyphosphates having an average chain length of 15; treated group 2 that was treated with the polyphosphate-collagen complex containing polyphosphates having an average chain length of 35; and treated group 3 that was treated with the polyphosphate-collagen complex containing polyphosphates having an average chain length of 75. The comparison groups were: comparison group 1 that was treated only with collagen and comparison group 2 that was treated with a mixed solution of a sodium phosphate buffer and collagen. Injection (approximately 0.1 ml) into the gingival crevices of each group was performed similarly to that for the treated groups. For all the groups, 3 rats were used per group. In addition, the injection was performed once a day and everyday from the day following the operation to prepare the gingival crevice, and was continued for 14 days.\nAfter the above treatment, at 15 days after the operation to prepare the gingival crevice, tissue sections (samples) were prepared in a manner similar to that in Example 3 from the rats of each group, and then the area of the formed alveolar bone was measured. The areas of the regenerated alveolar bones as measured for rat individuals included in 3 treated groups and 2 comparison groups are as shown in Table 1."}}, "data": [{"substance": "collagen [Comparison group 1]", "values": [{"measurement": "staining of the tissues: regeneration of alveolar bone (FIG. 2)", "setting": "[1]", "result": "no increase was observed in the alveolar bone"}, {"measurement": "area of the regenerated alveolar bone", "setting": "[2]; Individual 1", "result": 0.5422, "unit": "mm^2"}, {"measurement": "area of the regenerated alveolar bone", "setting": "[2]; Individual 2", "result": 0.5909, "unit": "mm^2"}, {"measurement": "area of the regenerated alveolar bone", "setting": "[2]; Individual 3", "result": 0.6569, "unit": "mm^2"}, {"measurement": "area of the regenerated alveolar bone, Average", "setting": "[2]; average of 3 rats per group, approx. 0.1 ml injected once a day for 14 days", "result": 0.5967, "unit": "mm^2"}]}]}
